The results in this text go back to ChEMBL document CHEMBL1143941, “Design, synthesis and structure-activity study of shorter hexa peptide analogues as HIV-1 protease inhibitors” (Bioorg Med Chem, 2008).

The assay relates to Human immunodeficiency virus 1. Description: Inhibition of recombinant HIV1 protease at 100 ug/ml.

For orientation: inhibition means how much of the control response was suppressed. For `CC(=O)N[C@H](C(=O)N[C@H](C(=O)N[C@@H](CC(C)C)[C@@H](O)CC(=O)N[C@@H](C)C(=O)N[C@@H](CC(C)C)[C@@H](O)CC(=O)O)C(C)C)C(C)C`, the inhibition came to 98.5%.

With H-LLEYVF-OH, the inhibition was found to be 52.3%.

Take H-LLEYVM-OH: the inhibition turned out to be 47.2%.

In the case of H-LLEYVW-OH, the inhibition amounted to 64.9%.

With H-LLEYVY-OH, the inhibition was 58.6%.
